Measurements published in patent publication US20260295038A1, “GLYCOLIPID DERIVATIVE AS MINCLE LIGAND” (priority 2023, published 2026).

Target: T1, bovine Mincle (Bos taurus, UniProt E1BHM0)
T1 construct: mouse T-cell hybridoma with FcRgamma), plate assay
T1 sequence (E1BHM0 1-211): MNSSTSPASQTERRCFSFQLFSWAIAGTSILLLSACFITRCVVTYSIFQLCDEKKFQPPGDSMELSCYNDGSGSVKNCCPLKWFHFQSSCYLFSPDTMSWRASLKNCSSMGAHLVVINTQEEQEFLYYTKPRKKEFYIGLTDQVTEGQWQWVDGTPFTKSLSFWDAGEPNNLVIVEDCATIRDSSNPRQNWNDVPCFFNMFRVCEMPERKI
Assay: Mincle ligand activity, NFAT-GFP reporter cells expressing bovine Mincle (Experimental Example 1)
Format: cell-based
Conditions: 0.03 to 3 nmol, FIG. 1 right
Method: Similarly, using NFAT-GFP reporter cells expressing bovine Mincle, prepared according to the method described in a literature (Yamasaki, S. et al, Nat Immunol 9, 1179-88(2008)), the ligand activity of HD-276 was evaluated on a 96-well plate. The doses of the test compounds (horizontal axis) were 0.03 to 3 (nmol) from the left to right.

CCCCCCc1ccc(O[C@@H]2OC(C)[C@H](O)[C@H](OC)C2O[C@@H]2OC(C)[C@H](O[C@@H]3OC(COC)[C@@H](O)C(O)[C@@H]3O)[C@H](OC)C2OC)cc1 (stereo in doubt) [HD-276]
Mincle ligand activity: confirmed to have Mincle ligand activity
